Values quoted from earlier work, collected in US20100179115A1, “USE OF A GLUCOCORTICOID RECEPTOR II ANTAGONIST TO TREAT DEPRESSION IN PATIENTS TAKING IL-2” (Corcept Therapeutics, Inc., priority 2006, published 2010).

Legend:
[1] = in one study (Kawai)
[2] = tested on: IL-1 induced memory deficits; details: Song 2002
[3] = tested on: severe major depression; details: four patients, one completed, no control group; Murphy 1993

fraction of the daily dose excreted in the urine [1]: less than 0.5%
SMILES: CC#C[C@]1(O)CC[C@H]2[C@@H]3CCC4=CC(=O)CCC4=C3[C@@H](c3ccc(N(C)C)cc3)C[C@@]21C [Mifepristone, 17-beta-hydroxy-11-beta-(4-dimethyl-aminophenyl)-17-alpha-(1-propynyl)-estra-4,9-dien-3-one]
recovery of rats that did not recover from the deleterious effects of IL-1 ([2]; after one or two treatments): complete recovery
effect on learning and memory impairments associated with IL-1 administration ([2]; rats, i.c.v. injection immediately prior to IL-1): significant reduction in learning and memory impairments
effectiveness in treating depression [3]: no clear evidence that RU486 was effective
